Measured values from patent publication US20150284344A1, “Substituted [1,2,4]triazole Compounds” (BASF SE, priority 2012, published 2015).

Key:
Format in all cases: cell-based
Botrytis cinerea = experiment: Microtiterplate test against grey mold Botrytis cinerea (Botrci), M1 / C1; conditions: comparison test C1, control = 100%
Septoria tritici = experiment: Microtiterplate test against leaf blotch on wheat caused by Septoria tritici (Septtr), M3 / C4; conditions: comparison test C4, control = 100%
Leptosphaeria nodorum = experiment: Microtiterplate test against wheat leaf spots caused by Leptosphaeria nodorum (Leptno), C3; conditions: comparison test C3, control = 100%
Pyricularia oryzae = conditions: comparison test C2, control = 100%

Structure (SMILES)	Growth (%) at 31 ppm Botrci (Botrytis cinerea) [%]	Growth (%) at 2 ppm Septtr (Septoria tritici) [%]	Growth (%) at 2 ppm Leptno (Leptosphaeria nodorum) [%]	Growth (%) at 31 ppm Pyrior (Pyricularia oryzae) [%]
Cc1cc(Oc2ccc(Cl)cc2)ccc1C(C)(O)Cn1cncn1 (stereo not drawn) [Compound I-4, 2-[4-(4-chlorophenoxy)-2-methyl-phenyl]-1-(1,2,4-triazol-1-yl)propan-2-ol]	0	0	0	0
Cc1cc(Oc2ccc(Cl)cc2)ccc1C(O)(Cn1cncn1)C(F)(F)F (stereo not drawn) [Compound I-5, 2-[4-(4-chlorophenoxy)-2-methyl-phenyl]-1,1,1-trifluoro-3-(1,2,4-triazol-1-yl)propan-2-ol]	0	2	1	0
Cc1cc(Oc2ccc(Cl)cc2)ccc1C(O)(CF)Cn1cncn1 (stereo not drawn) [EP 113 640 A2, compound 53, Table I, reference compound]	63	40	65	47
